From patent US9493444B2 (Merck Patent GmbH, priority 2012, dated 2016)

These molecules were tested on Wnt pathway (TCF-dependent transcription in HEK293 luciferase reporter cell line with ER-DSH construct) (assay: Cellular assay for Wnt pathway activity (luciferase reporter)). Conditions: Homo sapiens; Wnt pathway inhibition, HEK293 luciferase reporter cells (ER-DSH, TCF promoter), 24 hours incubation, estrogen-induced.
Type: cell-based
Protocol: 1. Cellular Assay for Wnt Pathway Activity
Compounds were tested for their Wnt pathway inhibitory activities using a luciferase reporter cell based assay. A HEK293 luciferase reporter cell line was used which contained an Estrogen Receptor-Dishevelled (ER-DSH) construct and a T-Cell Factor (TCF) dependent gene promoter luciferase construct.
Compounds, in concentrations from 30 μM down to 1 nM, were incubated for 24 hours on the cells, which were induced for TCF-dependent transcription by the addition of estrogen (10). Luciferase activities were determined using the ONE GLO Luciferase Assay System (Promega) and the ENVISION microplate reader (Perkin Elmer). For analysis, the obtained data were normalized against the untreated vehicle control and fitted for determination of the IC50 values using the Assay Explorer software (Accelrys).

Question: How did the IC50 turn out when `CSc1ccc(Oc2cncc(N(C)CCN(C)C(C)=O)n2)cc1` [Compound 65, N-Methyl-N-(2-{methyl-[6-(4-methyl-sulfanyl-phenoxy)-pyrazin-2-yl]-amino}-ethyl)-acetamide] was run?
Answer: < 200 nM

Question: For `CC(=O)N(C)CCNc1cncc(Oc2ccc(F)cc2)n1` [Compound 66, N-{2-[6-(4-Fluoro-phenoxy)-pyrazin-2-ylamino]-ethyl}-N-methyl-acetamide], which IC50 is on record?
Answer: 1000 to 10000 nM

Question: Which IC50 does the source give for `COc1ccc(Oc2cncc(NCCN(C)C(C)=O)n2)cc1` [Compound 67, N-{2-[6-(4-Methoxy-phenoxy)-pyrazin-2-ylamino]-ethyl}-N-methyl-acetamide] here?
Answer: 1000 to 10000 nM

Question: `CCNC(=O)N(C)CCN(C)c1cncc(Oc2ccc(OC)cc2)n1` [Compound 69, 3-Ethyl-1-(2-{[6-(4-methoxy-phenoxy)-pyrazin-2-yl]-methyl-amino}-ethyl)-1-methyl-urea] was tested. Which IC50 did it give?
Answer: 1000 to 10000 nM

Question: For `CCN(CCNc1cncc(Oc2cccc(F)c2)n1)C(C)=O` [Compound 70, N-Ethyl-N-{2-[6-(3-fluoro-phenoxy)-pyrazin-2-ylamino]-ethyl}-acetamide], which IC50 is on record?
Answer: 1000 to 10000 nM

Question: How did the IC50 turn out when `CCN(CCNc1cncc(Oc2ccc(OC)cc2)n1)C(C)=O` [Compound 71, N-Ethyl-N-{2-[6-(4-methoxy-phenoxy)-pyrazin-2-ylamino]-ethyl}-acetamide] was run?
Answer: 200 to 1000 nM

Question: With `CCN(CCNc1cncc(Oc2ccc(F)cc2)n1)C(C)=O` [Compound 72, N-Ethyl-N-{2-[6-(4-fluoro-phenoxy)-pyrazin-2-ylamino]-ethyl}-acetamide] as the molecule, how does the IC50 read?
Answer: 1000 to 10000 nM

Question: With `CCN(CC1CCCN(c2cncc(Oc3ccc(OC)cc3)n2)C1)C(C)=O` (stereo not shown) [Compound 73, N-Ethyl-N-{1-[6-(4-methoxy-phenoxy)-pyrazin-2-yl]-piperidin-3-ylmethyl}-acetamide] as the molecule, how does the IC50 read?
Answer: 1000 to 10000 nM

Question: `CN(CCN(C)c1cncc(Oc2ccc3ncccc3c2)n1)C(=O)C(F)(F)F` [Compound 74, 2,2,2-Trifluoro-N-methyl-N-(2-{methyl-[6-(quinolin-6-yloxy)-pyrazin-2-yl]-amino}-ethyl)-acetamide] was tested. Which IC50 did it give?
Answer: 1000 to 10000 nM

Question: Which IC50 does the source give for `CSc1cccc(Oc2cncc(N(C)CCN(C)C(=O)C(F)F)n2)c1` [Compound 75, 2,2-Difluoro-N-methyl-N-(2-{methyl-[6-(3-methyl-sulfanyl-phenoxy)-pyrazin-2-yl]-amino}-ethyl)-acetamide] here?
Answer: 1000 to 10000 nM

Question: Which IC50 does the source give for `CSc1cccc(Oc2cncc(N(C)CCN(C)C(=O)CF)n2)c1` [Compound 76, 2-Fluoro-N-methyl-N-(2-{methyl-[6-(3-methyl-sulfanyl-phenoxy)-pyrazin-2-yl]-amino}-ethyl)-acetamide] here?
Answer: 200 to 1000 nM

Question: Which IC50 does the source give for `CCN(CCN(C)c1cncc(Oc2ccc(OC)cc2)n1)C(C)=O` [Compound 77, N-Ethyl-N-(2-{[6-(4-methoxy-phenoxy)-pyrazin-2-yl]-methyl-amino}-ethyl)-acetamide] here?
Answer: < 200 nM

Question: Which IC50 does the source give for `COC(=O)N(C)CCN(C)c1cncc(Oc2ccc(OC)cc2)n1` [Compound 78, (2-{[6-(4-Methoxy-phenoxy)-pyrazin-2-yl]-methyl-amino}-ethyl)-methyl-carbamic acid methyl ester] here?
Answer: 1000 to 10000 nM

Question: For `COc1ccc(Oc2cncc(N(C)CCN(C)C(=O)C(F)(F)F)n2)cc1` [Compound 79, 2,2,2-Trifluoro-N-(2-{[6-(4-methoxy-phenoxy)-pyrazin-2-yl]-methyl-amino}-ethyl)-N-methyl-acetamide], which IC50 is on record?
Answer: 1000 to 10000 nM

Question: Which IC50 does the source give for `COc1ccc(Oc2cncc(N(C)CCCN(C)C(C)=O)n2)cc1` [Compound 80, N-(3-{[6-(4-Methoxy-phenoxy)-pyrazin-2-yl]-methyl-amino}-propyl)-N-methyl-acetamide] here?
Answer: 1000 to 10000 nM

Question: `COc1ccc(Oc2cncc(N(C)CCCN(C)C(=O)C(F)(F)F)n2)cc1` [Compound 81, 2,2,2-Trifluoro-N-(3-{[6-(4-methoxy-phenoxy)-pyrazin-2-yl]-methyl-amino}-propyl)-N-methyl-acetamide] was tested. Which IC50 did it give?
Answer: 1000 to 10000 nM

Question: With `CCN(CCN(C)c1cncc(Oc2cccc(F)c2)n1)C(C)=O` [Compound 82, N-Ethyl-N-(2-{[6-(3-fluoro-phenoxy)-pyrazin-2-yl]-methyl-amino}-ethyl)-acetamide] as the molecule, how does the IC50 read?
Answer: 200 to 1000 nM

Question: For `CC(=O)N(C)CCCN(C)c1cncc(Oc2ccc(F)cc2)n1` [Compound 83, N-(3-{[6-(4-Fluoro-phenoxy)-pyrazin-2-yl]-methyl-amino}-propyl)-N-methyl-acetamide], which IC50 is on record?
Answer: 1000 to 10000 nM

Question: How did the IC50 turn out when `CN(CCCN(C)c1cncc(Oc2ccc(F)cc2)n1)C(=O)C(F)(F)F` [Compound 84, 2,2,2-Trifluoro-N-(3-{[6-(4-fluoro-phenoxy)-pyrazin-2-yl]-methyl-amino}-propyl)-N-methyl-acetamide] was run?
Answer: 1000 to 10000 nM

Question: For `CC(=O)N(C)CCN(C)c1cncc(Oc2ccc(C(C)(C)C)cc2)n1` [Compound 85, N-(2-{[6-(4-tert-Butyl-phenoxy)-pyrazin-2-yl]-methyl-amino}-ethyl)-N-methyl-acetamide], which IC50 is on record?
Answer: < 200 nM

Question: For `CC(=O)N(C)CCN(C)c1cncc(Oc2ccc(N3CCCCC3=O)cc2)n1` [Compound 86, N-Methyl-N-[2-(methyl-{6-[4-(2-oxo-piperidin-1-yl)-phenoxy]-pyrazin-2-yl}-amino)-ethyl]-acetamide], which IC50 is on record?
Answer: 200 to 1000 nM

Question: `CC(=O)N(C)CCN(C)c1cncc(Oc2ccc(N3CCN(C(C)=O)CC3)cc2)n1` [Compound 87, N-[2-({6-[4-(4-Acetyl-piperazin-1-yl)-phenoxy]-pyrazin-2-yl}-methyl-amino)-ethyl]-N-methyl-acetamide] was tested. Which IC50 did it give?
Answer: 200 to 1000 nM

Question: How did the IC50 turn out when `CC(=O)N(C)CCN(C)c1cncc(Oc2ccc(Cl)c(C(F)(F)F)c2)n1` [Compound 88, N-(2-{[6-(4-Chloro-3-trifluoro-methyl-phenoxy)-pyrazin-2-yl]-methyl-amino}-ethyl)-N-methyl-acetamide] was run?
Answer: 1000 to 10000 nM

Question: For `CC(=O)N(C)CCN(C)c1cncc(Oc2ccc(Cl)c(Cl)c2)n1` [Compound 89, N-(2-{[6-(3,4-Dichloro-phenoxy)-pyrazin-2-yl]-methyl-amino}-ethyl)-N-methyl-acetamide], which IC50 is on record?
Answer: 200 to 1000 nM

Question: For `CCN(CCN(C)c1cncc(Oc2ccc(F)cc2)n1)C(C)=O` [Compound 90, N-Ethyl-N-(2-{[6-(4-fluoro-phenoxy)-pyrazin-2-yl]-methyl-amino}-ethyl)-acetamide], which IC50 is on record?
Answer: < 200 nM

Question: For `CC(=O)N(C)CCN(C)c1cncc(Oc2ccc3c(c2)OCO3)n1` [Compound 91, N-(2-{[6-(Benzo[1,3]dioxol-5-yloxy)-pyrazin-2-yl]-methyl-amino}-ethyl)-N-methyl-acetamide], which IC50 is on record?
Answer: 200 to 1000 nM

Question: For `CC(=O)N(C)CCN(C)c1cncc(Oc2ccc3c(c2)CCC3)n1` [Compound 92, N-(2-{[6-(Indan-5-yloxy)-pyrazin-2-yl]-methyl-amino}-ethyl)-N-methyl-acetamide], which IC50 is on record?
Answer: < 200 nM

Question: How did the IC50 turn out when `CC(=O)N(C)CCN(C)c1cncc(Oc2ccc(-c3ccc(C)cn3)cc2)n1` [Compound 93, N-Methyl-N-[2-(methyl-{6-[4-(5-methyl-pyridin-2-yl)-phenoxy]-pyrazin-2-yl}-amino)-ethyl]-acetamide] was run?
Answer: < 200 nM

Question: Which IC50 does the source give for `CC(=O)Nc1ccc(Oc2cncc(N(C)CCN(C)C(C)=O)n2)cc1` [Compound 94, N-(2-{[6-(4-Acetylamino-phenoxy)-pyrazin-2-yl]-methyl-amino}-ethyl)-N-methyl-acetamide] here?
Answer: 200 to 1000 nM

Question: `CC(=O)N(C)CCN(C)c1cncc(Oc2ccc(C(C)C)cc2)n1` [Compound 95, N-(2-{[6-(4-Isopropyl-phenoxy)-pyrazin-2-yl]-methyl-amino}-ethyl)-N-methyl-acetamide] was tested. Which IC50 did it give?
Answer: < 200 nM

Question: How did the IC50 turn out when `CC(=O)N(C)CCN(C)c1cncc(Oc2ccc(Cl)cc2Cl)n1` [Compound 96, N-(2-{[6-(2,4-Dichloro-phenoxy)-pyrazin-2-yl]-methyl-amino}-ethyl)-N-methyl-acetamide] was run?
Answer: 200 to 1000 nM

Question: `CCc1ccc(Oc2cncc(N(C)CCN(C)C(C)=O)n2)cc1` [Compound 97, N-(2-{[6-(4-Ethyl-phenoxy)-pyrazin-2-yl]-methyl-amino}-ethyl)-N-methyl-acetamide] was tested. Which IC50 did it give?
Answer: < 200 nM

Question: Which IC50 does the source give for `CC(=O)N(C)CCN(C)c1cncc(Oc2ccc(-c3ccccc3)cc2)n1` [Compound 98, N-(2-{[6-(Biphenyl-4-yloxy)-pyrazin-2-yl]-methyl-amino}-ethyl)-N-methyl-acetamide] here?
Answer: < 200 nM

Question: For `CC(=O)N(C)CCN(C)c1cncc(Oc2ccc(C3CCCCC3)cc2)n1` [Compound 99, N-(2-{[6-(4-Cyclohexyl-phenoxy)-pyrazin-2-yl]-methyl-amino}-ethyl)-N-methyl-acetamide], which IC50 is on record?
Answer: 1000 to 10000 nM

Question: `CC(=O)N(C)CCN(C)c1cncc(Oc2ccc(S(C)(=O)=O)cc2)n1` [Compound 100, N-(2-{[6-(4-Methane-sulfonyl-phenoxy)-pyrazin-2-yl]-methyl-amino}-ethyl)-N-methyl-acetamide] was tested. Which IC50 did it give?
Answer: 200 to 1000 nM

Question: How did the IC50 turn out when `CC(=O)N(C)CCN(C)c1cncc(Oc2ccc(S(N)(=O)=O)cc2)n1` [Compound 101, N-Methyl-N-(2-[methyl-[6-(4-sulfamoyl-phenoxy)-pyrazin-2-yl]-amino}-ethyl)-acetamide] was run?
Answer: 200 to 1000 nM

Question: With `CCN(CCN(CC)c1cncc(Oc2ccc(F)cc2)n1)C(C)=O` [Compound 102, N-Ethyl-N-(2-{ethyl-[6-(4-fluoro-phenoxy)-pyrazin-2-yl]-amino}-ethyl)-acetamide] as the molecule, how does the IC50 read?
Answer: 200 to 1000 nM

Question: `CCN(CCN(CC)c1cncc(Oc2ccc(OC)cc2)n1)C(C)=O` [Compound 103, N-Ethyl-N-(2-{ethyl-[6-(4-methoxy-phenoxy)-pyrazin-2-yl]-amino}-ethyl)-acetamide] was tested. Which IC50 did it give?
Answer: 200 to 1000 nM

Question: How did the IC50 turn out when `CC(=O)N(C)CCN(C)c1cncc(OCc2ccc(F)cc2)n1` [Compound 104, N-(2-{[6-(4-Fluoro-benzyloxy)-pyrazin-2-yl]-methyl-amino}-ethyl)-N-methyl-acetamide] was run?
Answer: 1000 to 10000 nM

Question: For `CC(=O)N(C)CCN(C)c1cncc(Oc2ccc(F)cc2F)n1` [Compound 105, N-(2-{[6-(2,4-Difluoro-phenoxy)-pyrazin-2-yl]-methyl-amino}-ethyl)-N-methyl-acetamide], which IC50 is on record?
Answer: 200 to 1000 nM
